Tested on: green peach aphid (Myzus persicae)
Assay: Myzus test (spray treatment) on Chinese cabbage leaf disks
Format: in vivo
Conditions: foliar, 144 h, read-out: Mortality in % After 6 Days
Procedure: A suitable preparation of active ingredient was prepared by mixing one part by weight of active ingredient with the stated amounts of solvent and emulsifier and diluting the concentrate with emulsifier-containing water to the desired concentration as described below. A suitable suspension of biological agent was prepared by dissolving the cells, spores or viruses in emulsifier-containing water at the desired concentration.
Chinese cabbage (Brassica pekinensis) leaf disks infested by all stages of the green peach aphid (Myzus persicae) were sprayed with an active ingredient and/or biological agent preparation in the desired concentration.
After the desired time, the effect in % was ascertained. Here, 100% means that all of the aphids had been killed; 0% means that no aphids had been killed. The mortality figures determined are used for calculation according to the Colby formula (cf. Colby, S. R., “Calculating Synergistic and Antagonistic Responses of Herbicide Combinations”, Weeds 1967, 15, 20-22).

O=C(NCCc1ncc(C(F)(F)F)cc1Cl)c1ccccc1C(F)(F)F [Fluopyram, fluopyram]
mortality at 500 g/ha (500 g ai/ha): 0% | mortality at 1000 g/ha (1000 g ai/ha): 0%

— US20180064110A1, “COMBINATIONS OF FUNGICIDALLY ACTIVE YEAST AND FUNGICIDES” (Bayer CropScience AG, priority 2009, published 2018)
